Here are results for 7 compounds from patent US9193704B2, “Hydantoin derivatives as KV3 inhibitors” (AUTIFONY THERAPEUTICS LIMITED, priority 2011, dated 2015).

In data set [1] the test system is p-glycoprotein. Briefly: In vivo pharmacokinetic assay with the PgP transport inhibitor Elacridar. The conditions noted are these: rat; Elacridar 3 mg/kg intravenous shortly before oral 1 mg/kg; 0.5 h; indicates absence of notable p-glycoprotein interactions. On the procedure:
Adult male rats (Charles River, Italy) were dosed with test compound orally at 1 mg/kg (5 ml/kg, in 5% v/v DMSO, 0.5% w/v HPMC in water) and intravenously at 0.5 mg/kg (2 ml/kg, in 5% v/v DMSO 40% w/v PEG400 in saline). After oral administration, blood samples were collected under deep Isofluorane anesthesia from the portal vein and heart of each rat (1 rat per time point). After intravenous administration, serial blood samples were collected from the lateral tail vein of each rat. A further group of rats (n=1 per test compound) received a single intravenous administration of the PgP transport inhibitor, Elacridar (3 mg/kg) shortly before the oral administration of the test compound at 1 mg/kg, as above. Blood and brain samples were collected at a single timepoint of 0.5 h after dose administration for these animals. In all cases, blood samples were collected into potassium EDTA tubes.
Blood and brain samples were assayed for test compound concentration using a method based on protein precipitation with acetonitrile followed by HPLC/MS-MS analysis with an optimized analytical method.
The concentrations of test compound in blood (expressed as ng/ml) and brain (expressed as ng/g) at the different time points following either oral or intravenous dosing were analysed using a non-compartmental pharmacokinetic model using WinNonLin Professional version 4.1. The following parameters were derived:
Oral dosing: Cmax, time of maximum concentration (Tmax), AUC, bioavailability (F %), fraction absorbed (Fa %), blood to brain ratio (AUC BB), and Fold-change in AUC BB in the presence of Elacridar.

The test system of data set [2] is amphetamine induced hyperlocomotion. Briefly: Mouse model of amphetamine induced hyperlocomotion. The class given is in vivo. The conditions noted are these: 60 mg/kg, 60 minute period following amphetamine administration, P<0.01. On the procedure:
Example 33 was tested in the_mouse model of amphetamine induced hyperlocomotion described in Example 93 of WO2011/069951A1.

In data set [3] the target is T1, human Kv3.1 channels (hKv3.1) (Homo sapiens, UniProt P48547).
T1 construct: expressed in transfected cells; host or cells: CHO/Gam/E1A-clone22 (CGE22) cells, CHO-K1-derived, transiently transduced with BacMam pFBM/human Kv3.1
T1 sequence (P48547 1-511): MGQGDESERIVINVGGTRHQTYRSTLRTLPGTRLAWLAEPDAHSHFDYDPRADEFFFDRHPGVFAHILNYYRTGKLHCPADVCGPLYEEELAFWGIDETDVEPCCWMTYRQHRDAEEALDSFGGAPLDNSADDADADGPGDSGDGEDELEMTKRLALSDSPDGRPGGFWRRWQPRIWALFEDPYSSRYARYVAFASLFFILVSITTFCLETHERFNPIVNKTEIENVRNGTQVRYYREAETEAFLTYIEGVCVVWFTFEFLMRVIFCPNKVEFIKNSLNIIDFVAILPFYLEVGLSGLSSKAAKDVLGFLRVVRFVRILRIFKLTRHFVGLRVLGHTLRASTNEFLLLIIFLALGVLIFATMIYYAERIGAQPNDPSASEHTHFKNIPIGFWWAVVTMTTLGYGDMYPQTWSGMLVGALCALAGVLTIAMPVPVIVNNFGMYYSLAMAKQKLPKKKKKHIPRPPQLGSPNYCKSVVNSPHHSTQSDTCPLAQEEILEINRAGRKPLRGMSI
Briefly: IonWorks Quattro electrophysiology, potentiation of hKv3.1 currents. In kind it is cell-based. The conditions noted are these: between Kv3.1 and Kv3.2 channels. (In general: The patch-clamp technique gives a direct electrical read-out from membranes.)
Source text: The ability of the compounds of the invention to modulate the voltage-gated potassium channel subtypes Kv3.2/3.1 may be determined using the following assay.
This cell line was designed to be an improved CHO-K1-based host for enhanced recombinant protein expression as compared to wild type CHO-K1. The cell line was generated following the transduction of CHO-K1 cells with a BacMam virus expressing the Adenovirus-Gam1 protein and selection with Geneticin-G418, to generate a stable cell line, CHO/Gam-A3. CHO/Gam-A3 cells were transfected with pCDNA3-E1A-Hygro, followed by hygromycin-B selection and FACS sorting to obtain single-cell clones. BacMam-Luciferase and BacMam-GFP viruses were then used in transient transduction studies to select the clone based on highest BacMam transduction and recombinant protein expression. […]
Experiments were conducted at room temperature using IonWorks Quattro™ planar array electrophysiology technology (Molecular Devices Corp.) with PatchPlate™ PPC. […] Planar electrode hole resistances(Rp) were determined by applying a 10 mV voltage step across each well. […] Test pulses protocol may be performed in the absence (pre-read) and presence (post-read) of the test compound. Pre- and post-reads may be separated by the compound addition followed by a 3 minute incubation. […]

For `CC1(C)NC(=O)N(c2ccc(Oc3ccc4c(c3)C(C(C)(C)C)OC4)nc2)C1=O` (single isomer, unassigned) [Example 50, 3-[6-[(3-tert-butyl-1,3-dihydroisobenzofuran-5-yl)oxy]-3-pyridyl]-5,5-dimethyl-imidazolidine-2,4-dione], the “change in AUC BB in the presence of Elacridar” value (“change in AUC BB” for short) in data set [1] is “limited change”.

For `CC1(C)NC(=O)N(c2ccc(Oc3ccc4c(c3)C(C)(C(F)(F)F)OC4)nc2)C1=O` (single isomer, unassigned) [Example 52, 5,5-dimethyl-3-[6-[[3-methyl-3-(trifluoromethyl)-1H-isobenzofuran-5-yl]oxy]-3-pyridyl]imidazolidine-2,4-dione], in data set [1], the “change in AUC BB” value was “limited change”.

As to `CC1(C)NC(=O)N(c2cnc(Oc3ccc4c(c3)C3(CCCC3)OC4)nc2)C1=O` [Example 12, 5,5-dimethyl-3-(2-spiro[1H-isobenzofuran-3,1′-cyclopentane]-5-yloxypyrimidin-5-yl)imidazolidine-2,4-dione], in data set [1], the “change in AUC BB” value is recorded as “limited change”.

Consider `CC[C@@]1(C)NC(=O)N(c2ccc(Oc3ccc4c(c3)C(C)(C)OC4)nc2)C1=O` [Example 33, (5R)-3-[6-[(3,3-dimethyl-1H-isobenzofuran-5-yl)oxy]-3-pyridyl]-5-ethyl-5-methyl-imidazolidine-2,4-dione], for which, in data set [2], the “increase in locomotor activity induced by amphetamine” value was “completely prevented”. In addition, the “change in AUC BB” value in data set [1] is on record as “limited change”.

On to `CC1(C)NC(=O)N(c2ccc(Oc3ccc4c(c3)C3(CCC3)OC4)nc2)C1=O` [Example 58, 5,5-dimethyl-3-(6-spiro[1H-isobenzofuran-3,1′-cyclobutane]-5-yloxy-3-pyridyl)imidazolidine-2,4-dione], for which the “change in AUC BB” value in data set [1] is “limited change”.

Regarding `CC[C@H]1NC(=O)N(c2ccc(Oc3cccc4c3C3(CC3)CO4)nc2)C1=O` [Reference Example 87, (5R)-5-ethyl-3-[6-(spiro[1-benzofuran-3,1′-cyclopropan]-4-yloxy)-3-pyridinyl]-2,4-imidazolidinedione], the “difference in pEC50 values between the two channels” value in data set [3] is given as 0.7 log unit.

Turning to `CC1(C)NC(=O)N(c2ccc(Oc3cccc4c3C3(CC3)CO4)nc2)C1=O` [Reference Example 88, 5,5-dimethyl-3-[6-(spiro[1-benzofuran-3,1′-cyclopropan]-4-yloxy)-3-pyridinyl]-2,4-imidazolidinedione], the “difference in pEC50 values between the two channels” value in data set [3] is recorded as 0.7 log unit.
